# Key:
# [1] = test system: Panc-1 cells; assay: RealTime-Glo Annexin V Apoptosis and Necrosis Assay; format: cell-based
# Procedure: FIGS. 2A and 2B depict the Annexin V Apoptosis and Necrosis Assay in Panc-1 cells. Panc-1 cells were exposed to serial dilutions of 057 in the presence or absence of the RealTime-Glo™ Annexin V Apoptosis and Necrosis Assay Reagent. The plate was incubated at 37° C./5% CO2 and luminescence (Annexin V binding) was measured over a period of 6 hours.
# [2] = test system: pancreatic cancer cell lines; assay: Imaging of pancreatic cancer cell lines over time; format: cell-based; conditions: 10 uM, time 0 to 240 minutes
# Procedure: FIG. 3 depicts the Effects of 10 uM BCN057 on the viability of pancreatic cancer cell lines. The images show pancreatic cancer cell lines at time 0 (FIG. 3A), 15 minutes (FIG. 3B), 30 minutes (FIG. 3C), 60 minutes (FIG. 3D), 120 minutes (FIG. 3E) and 240 minutes (FIG. 3F).
# [3] = test system: pancreatic cancer cell lines; assay: ATP Lite viability assay of pancreatic cancer cell lines; format: cell-based
# Procedure: FIG. 1 depicts the Effects of 5-FU and BCN057 on the viability of pancreatic cancer cell lines. The Effects of 5-FU and BCN057 on the viability of pancreatic cancer cell lines were assessed by ATP Lite assay (Perkin Elmer). 50 uM 5Fu (5Fu, n=5), 50 uM 5Fu and 2, 5, 10, and 20 uM BCN057 (5Fu+BCN057, n=5) or 2, 5, 10.20 uM CN057 (CN057, n=5). Control cells (V, n=5) The Percent Phosphorylation was calculated by dividing the average value for each condition by the average value of the control cells (V) at each time point.
# FIGS. 4A and 4B show Compound H, Compound K and the results of a Viability Assay on Pancreatic Cells. […] The numeric data is also included (FIG. 4B). FIG. 5A depicts Compound H and FIG. 5B depicts Compound K.
# [4] = Solubility in aqueous formulations; format: physicochemical; conditions: 30 wt % Captisol (SBE-beta-CD) and 100 mM MSA, at up to pH 4.1 or higher
# [5] = test system: Wnt activity; assay: TOPFLASH assay of exosomes purified from lung organoid conditioned medium; format: cell-based, mice; conditions: irradiated organoids treated with BCN512 compared to irradiated control
# Procedure: If BCN512 and related structures inhibit the activity of SRFPs, BCN512 can allow more free Wnt ligand from epithelial cells. Free Wnt ligands are secreted and transported through exosomes. To determine the role of BCN512 in pulmonary epithelium derived Wnt release, exosomes were purified from organoid conditioned medium. Purified exosomes were tested for Wnt activity by the TOPFLASH assay.
# Wnt activity has also been examined in exosomes derived from human lung organoids.
# [6] = test system: Wnt activity; assay: TOPFLASH assay of exosomes purified from human lung organoid conditioned medium; format: cell-based; conditions: human lung organoids irradiated (4-6 Gy), treated with BCN512, compared to irradiated control
# Procedure: For the role of BCN512 in human pulmonary epithelium derived Wnt release, exosome were purified from organoid conditioned medium. Purified exosomes were tested for Wnt activity by TOPFLASH assay.
# [7] = test system: lung fibrosis; assay: Fibrotic lesions in lung sections; format: in vivo; conditions: BCN512 treated (20×512) vs. vehicle (20×V), C57BL mice, day 180, five mice per group
# Description: Lesions were defined by local density with five mice per group assessed at day 180. This effect is observed with non-radiation induced stimuli such as LPS and cytotoxic drugs.
# [8] = test system: TGFβ; assay: Histopathology of lung and cardiac muscle sections stained for TGFβ after thoracic radiation; format: in vivo, C57M Male mice
# Procedure: Transforming growth factor β (TGF-β) is a central mediator of fibrogenesis. […] TGFβ is reduced when treated for the first 20 days post radiation with BCN512 at 5 mg/kg. Images D-F are cardiac muscle stains under the identical parameters above from the same animals. […] We expect the same results using non-radiation induced stimuli including LPS and cytotoxic drugs.
# [9] = test system: HEK293 cells having a TCF/LEF luciferase reporter construct; assay: TCF/LEF luciferase reporter assay of canonical WNT activity; format: cell-based; conditions: after 24 hours, compared with vehicle treated cells
# Procedure: These studies and observations are consistent with previous observations, specifically that WNT-catenin signaling promotes the self-renewal and differentiation of LGR5+ epithelial (lung, oral, intestinal) stem cells. Canonical WNT activity was measured in HEK293 cells having a TCF/LEF luciferase reporter construct. Luciferase activity was measured after 24 hours.
compound,measurement,setting,value
"COc1ccc2cc(-c3nc4ccc(C)cn4c3NCc3ccco3)c(=O)[nH]c2c1 [BCN057, (3-[(Furan-2-ylmethyl)-amino]-2-(7-methoxy-2-oxo-1,2-dihydro-quinolin-3-yl)-6-methyl-imidazo[1,2-a]pyridin-1-ium)]",fluorescence (necrosis),[1]; over the same 6 hour period,No change
same,"apoptosis (luminescence, Annexin V binding)","[1]; serial dilutions, measured over 6 hours",increase with increasing concentrations
same,morphological changes and apoptosis,[2],particularly apparent at 240 minutes
same,antineoplastic activity / proliferation of the tumor cell line,[3],inhibits the proliferation of the tumor cell line
same,solubility,[4],excellent solubility
"O=[N+]([O-])c1ccc([S@SP3](=O)(=O)N2CCN(c3ccccc3)CC2)cc1 [BCN512, 1-[(4-nitrobenezene)sulfonyl]-4-phenyl piperazine]",exosomal Wnt activity,[5],several folds higher
same,exosomal Wnt activity,[6],several folds high
same,lung fibrosis (number of fibrotic lesions in lung sections),[7],significant reduction
same,TGFβ staining in lung sections,"[8]; 14Gy thoracic radiation, 5 mg/kg for the first 20 days post radiation, assessed on day 90",reduced
same,TGFβ staining with non-radiation induced stimuli,[8]; non-radiation induced stimuli including LPS and cytotoxic drugs,same results
same,TGFβ staining in cardiac muscle,"[8]; same animals and parameters: 14Gy thoracic radiation, 5 mg/kg for first 20 days, day 90",significant reduction
same,luciferase activity,[9],significantly increased

# From patent publication US12435081B2, “Methods of treatment using BCN057 and BCN512” (BCN Biosciences L.L.C., priority 2019, dated 2025)
